Reference: patent publication US9540702B2, “Stabilization of enzymes with stable coenzymes” (Roche Diabetes Care, Inc., priority 2009, dated 2017)

Target: T1, alcohol dehydrogenase (ADH) (Saccharomyces cerevisiae, UniProt P00330)
T1 sequence (P00330 1-348): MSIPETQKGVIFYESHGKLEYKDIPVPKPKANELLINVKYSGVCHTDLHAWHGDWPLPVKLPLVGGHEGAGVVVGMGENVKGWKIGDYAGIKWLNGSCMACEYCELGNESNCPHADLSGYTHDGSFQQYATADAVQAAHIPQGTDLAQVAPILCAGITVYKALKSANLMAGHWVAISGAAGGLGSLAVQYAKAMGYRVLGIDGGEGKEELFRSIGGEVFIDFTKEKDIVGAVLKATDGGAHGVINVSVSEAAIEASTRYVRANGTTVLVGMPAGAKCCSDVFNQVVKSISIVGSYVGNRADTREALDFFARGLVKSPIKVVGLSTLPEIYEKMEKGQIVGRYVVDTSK
Assay: Storage of alcohol dehydrogenase detection solution with NAD or cNAD (Tables 1 and 2)
Assay type: biochemical, yeast
Description: cNAD or NAD was added to a detection solution containing alcohol dehydrogenase. These mixtures were stored at 2-8° C. and at 35° C. Subsequently, the stability of alcohol dehydrogenase (ADH) was checked at regular intervals and the residual activity of the enzyme was determined.
If alcohol dehydrogenase is stored together with native NAD or with cNAD for several months at 2-8° C. in a refrigerator, then one observes in the case of […] a considerable decrease in enzyme activity over the entire storage period. Whereas the difference after 2 weeks storage is still slight, there is an approximately 20% higher residual activity of alcohol dehydrogenase after 12 months storage in the presence of 16 mM cNAD compared to a corresponding solution containing 16 mM NAD as the coenzyme.
Accordingly, the residual activity of alcohol dehydrogenase can be increased somewhat in samples that have been stored for 2 weeks at 2-8° C. by increasing the concentration of cNAD.

[1] = 16 mmol/l coenzyme, initial value

**Q.** What does the source list for `NC(=O)c1ccc[n+]([C@@H]2C[C@H](COP(=O)([O-])OP(=O)(O)OC[C@H]3O[C@@H](n4cnc5c(N)ncnc54)[C@H](O)[C@@H]3O)[C@@H](O)[C@H]2O)c1` [carbaNAD]?
**A.** ADH activity after 2 weeks at 2-8° C. (16 mmol/l coenzyme, 2 weeks at 2-8° C.): 100.7 % of initial value; ADH activity after 3 months at 2-8° C. (16 mmol/l coenzyme, 3 months at 2-8° C.): 91.3 % of initial value; ADH activity after 7.5 months at 2-8° C. (16 mmol/l coenzyme, 7.5 months at 2-8° C.): 95.6 % of initial value; ADH activity after 10 months at 2-8° C. (16 mmol/l coenzyme, 10 months at 2-8° C.): 88.2 % of initial value; ADH activity after 12 months at 2-8° C. (16 mmol/l coenzyme, 12 months at 2-8° C.): 83.8 % of initial value; ADH activity % of weighed amount (initial value) [1]: 71.9 % of weighed amount; ADH activity U/ml (initial value) [1]: 120.2 U/ml; higher residual activity of alcohol dehydrogenase compared to 0.5 mM cNAD (2 weeks at 35° C., 15 mM cNAD): approximately 45%; higher residual activity of alcohol dehydrogenase compared to 16 mM NAD solution (12 months at 2-8° C., 16 mM cNAD): approximately 20%; ADH activity % of weighed amount (initial value) (Sample 1, pH 7.85, 0.5 mM cNAD): 73.7 % of weighed amount; ADH activity U/ml (initial value) (Sample 1, pH 7.85, 0.5 mM cNAD): 123.1 U/ml; ADH activity after 2 weeks at 2-8° C. (Sample 1, pH 7.85, 0.5 mM cNAD): 93.8 % of initial value; ADH activity after 2 weeks at 35° C. (Sample 1, pH 7.85, 0.5 mM cNAD): 31.1 % of initial value; ADH activity % of weighed amount (initial value) (Sample 2, pH 7.85, 1 mM cNAD): 75.3 % of weighed amount; ADH activity U/ml (initial value) (Sample 2, pH 7.85, 1 mM cNAD): 125.8 U/ml; ADH activity after 2 weeks at 2-8° C. (Sample 2, pH 7.85, 1 mM cNAD): 97.7 % of initial value; ADH activity after 2 weeks at 35° C. (Sample 2, pH 7.85, 1 mM cNAD): 45.5 % of initial value; ADH activity % of weighed amount (initial value) (Sample 3, pH 7.85, 5 mM cNAD): 74.9 % of weighed amount; ADH activity U/ml (initial value) (Sample 3, pH 7.85, 5 mM cNAD): 125.1 U/ml; ADH activity after 2 weeks at 2-8° C. (Sample 3, pH 7.85, 5 mM cNAD): 101.1 % of initial value; ADH activity after 2 weeks at 35° C. (Sample 3, pH 7.85, 5 mM cNAD): 74.1 % of initial value; ADH activity % of weighed amount (initial value) (Sample 4, pH 7.85, 15 mM cNAD): 74.1 % of weighed amount; ADH activity U/ml (initial value) (Sample 4, pH 7.85, 15 mM cNAD): 123.7 U/ml; ADH activity after 2 weeks at 2-8° C. (Sample 4, pH 7.85, 15 mM cNAD): 104.0 % of initial value; ADH activity after 2 weeks at 35° C. (Sample 4, pH 7.85, 15 mM cNAD): 77.6 % of initial value
